“And” between values parts separate entries of the source, which are not always exact repeats. Equal values may be shown once.
Legend:
Aqueous solubility = type: physicochemical; details: aqueous buffers at physiological pH
cleaved caspase-3 (CC3) = assay: Cleaved caspase-3 immunohistochemistry of RS4;11 tumours; type: in vivo, C.B-17 SCID mouse; details: RS4;11 tumours, 1, 5 and 24 h post dose
Procedure: Formalin fixed paraffin embedded (FFPE) slides were cut on a rotary microtome at 4 µm and placed onto Superfrost plus slides (VWR) dried thoroughly, and then baked for 20 min in an oven at 60 °C. Slides were then stained on a Ventana Discovery XT using a CCI standard protocol and DAB Map Kit (Ventana cat # 760-124). The slides were then incubated in the primary CC3 (Cell Signaling Technology) antibody at 100µL per slide of a 1:50 dilution for 1 h. The secondary antibody was a biotinylated goat anti-rabbit from Vector Labs (PK-6101) made according to manufacturer’s instructions and put in an auto-dispense container. The slides were incubated in the secondary antibody for 30 min and then counterstained with Hematoxylin (Ventana 760-2021) for 4 min and blued with bluing reagent (Ventana 760-2037) for 4 min. After the Ventana run was complete, slides were taken off the machine, rinsed in reaction buffer, dehydrated, cleared and mounted with permount. Digital slide images were acquired at 20 x magnification using the Aperio Scanscope XT (Vista, CA).

OCI-LY10 xenograft = OCI-LY10 xenograft efficacy and survival; type: in vivo, C.B-17 SCID mouse; set-up: OCI-LY10 xenograft efficacy, individual animals: unit not given here; details: for OCI-LY10 xenograft efficacy, individual animals: AZD0466 103 mg/kg (30mg/kg AZD4320)
Procedure: (§1) Female C.B.−17 SCID mice were purchased from Charles River Laboratories. Mice were 5–8 weeks old at the time of tumour implantation. All xenograft studies were conducted at our Association for the Assessment and Accreditation of Laboratory Animal Care accredited facility in Waltham, MA in accordance with ethical regulations described in the guidelines established by the internal Institutional Animal Care and Use Committee. The dendrimer conjugates were formulated in citrate/phosphate buffer pH 5.0, diluted 1:10 with 5% glucose containing 1% w/v Kolliphor HS15, and AZD4320 was formulated in 30% HP-β-CD and dosed as a weekly intravenous (IV) administration at a volume of 5 ml/kg at the indicated doses. Five million RS4;11, five million SUDHL-4 or five million OCI-LY-10 cells were injected subcutaneously in the right flank of mice in a volume of 0.1 ml. Tumour volumes (measured by caliper), animal body weight, and tumor condition were recorded twice weekly for the duration of the study. The tumour volume was calculated (taking length to be the longest diameter across the tumour and width to be the corresponding perpendicular diameter) using the formula: length (mm) x width (mm)^2/0.52. For efficacy studies, mice were randomized based on tumour volumes using stratified sampling and enrolled into control and treatment groups. Tumour growth inhibition from the start of treatment was quantified by measuring the difference in tumour volume between control and treated groups. Survival analysis was evaluated using Mantel-Cox test. Tumours were also taken for bioanalysis.

[1] = In vitro release of AZD4320 from conjugate in rat plasma with 5% HEPES, 37 °C (Fig S8); type: in vitro ADME; details: Rat Plasma 37 °C
Procedure: AZD4320 loading was quantified by 1H NMR spectroscopy. […]
conjugated AZD4320 peak areas. […]
AZD4320 conjugated dendrimer in plasma
Supplementary Figure 8. Comparison and release rate in plasma and buffer. Cumulative in vitro release of AZD4320 measured over time from AZD4320-dendrimer conjugate SPL8977) in phosphate buffered saline (purple circles, n=3) and rat plasma (green squares, n=2) and fit to first order model at 37 °C (n=2) […]

telemetered dogs = details: dog, in vivo, 60 mg/kg
platelets = assay: Platelet count in dogs; type: in vivo; details: dog, weekly ascending doses
SUDHL-4 xenograft = SUDHL-4 xenograft efficacy and survival; type: in vivo, C.B-17 SCID mouse
Procedure: as §1

[2] = tested on: luciferase-tagged Ri-1 tumour cells; assay: Disseminated luciferase-tagged Ri-1 DLBCL model (bioluminescence); type: in vivo, C.B-17 SCID mouse
Procedure: Ten million luciferase-tagged Ri-1 tumour cells were injected intravenously in the tail vein of C.B.−17 SCID female mice in a volume of 0.1 ml. Tumour burden (determined by Xenogen IVIS imaging), body weight and health condition were recorded twice weekly for the duration of the study. For Xenogen imaging, mice received an intraperitoneal administration of 150 mg/kg D- Luciferin 10 to 15 minutes prior to imaging. Imaging was performed under isoflurane anaesthesia and data analyzed using Living Image software (Xenogen). Statistical significance was evaluated using non-parametric, unpaired, two-tailed t-test.

With CN(CCO)CCC(CSc1ccccc1)Nc1ccc(S(=O)(=O)NC(=O)c2ccc(N3CCC(C(O)c4ccccc4-c4ccc(Cl)cc4)CC3)cc2)cc1S(=O)(=O)C(F)(F)F (stereo not shown) [AZD4320] the solubility (Aqueous solubility) was < 1 µg/mL and the “cleaved caspase-3 induction by IHC” value (cleaved caspase-3 (CC3)) was “robust cleaved caspase induction”.

With AZD4320-MIDA-PEG2100 [AZD0466] the “OCI-LY10 xenograft efficacy, individual animals” value (“OCI-LY10 xenograft efficacy” below) (OCI-LY10 xenograft; day 18) was 193 and 170 and 155 and 173 and 235 and 111 and 163 and 131, the “OCI-LY10 xenograft efficacy” value (OCI-LY10 xenograft; day 21) was 363 and 334 and 195 and 394 and 490 and 191 and 262 and 142 and the “OCI-LY10 xenograft efficacy” value (OCI-LY10 xenograft; day 25) was 214 and 151 and 62 and 129 and 351 and 181 and 222 and 188. The “OCI-LY10 xenograft efficacy” value (OCI-LY10 xenograft; day 28) was 475 and 406 and 118 and 241 and 485 and 190 and 184 and 194, the “OCI-LY10 xenograft efficacy” value (OCI-LY10 xenograft; day 32) was 410 and 443 and 252 and 338 and 536 and 215 and 401 and 301 and the “OCI-LY10 xenograft efficacy” value (OCI-LY10 xenograft; day 35) was 664 and 595 and 309 and 391 and 667 and 265 and 496 and 262. For the same molecule, the “OCI-LY10 xenograft efficacy” value (OCI-LY10 xenograft; day 39) was 653 and 578 and 346 and 432 and 638 and 281 and 354 and 330, the “OCI-LY10 xenograft efficacy” value (OCI-LY10 xenograft; day 42) was 773 and 918 and 408 and 717 and 707 and 404 and 319 and 272 and the “mice with complete regressions” value (OCI-LY10 xenograft; OCI-LY10, AZD0466 in combination with acalabrutinib) was 8/8. The “monotherapy activity” value (OCI-LY10 xenograft; OCI-LY10 DLBCL model) was “neither agent showed any demonstrable monotherapy activity”, the “Cummulative Release %” value ([1]; 1.06 h, Replicate 1) was 2.56% and the “Cummulative Release %” value ([1]; 1.24 h, Replicate 2) was 3.28%. For the same molecule, the “Cummulative Release %” value ([1]; 5.87 h, Replicate 1) was 9.61%, the “Cummulative Release %” value ([1]; 6.04 h, Replicate 2) was 11.99% and the “Cummulative Release %” value ([1]; 10.67 h, Replicate 1) was 18.75%. For the same molecule, the “Cummulative Release %” value ([1]; 10.85 h, Replicate 2) was 23.05%, the “Cummulative Release %” value ([1]; 15.47 h, Replicate 1) was 27.34% and the “Cummulative Release %” value ([1]; 15.65 h, Replicate 2) was 32.24%. The “Cummulative Release %” value ([1]; 20.27 h, Replicate 1) was 39.17%, the “Cummulative Release %” value ([1]; 20.45 h, Replicate 2) was 41.44% and the “adverse clinical signs” value (telemetered dogs) was “not associated with any adverse clinical signs”. The “effect on platelet count” value (platelets) was “reversible and dose-dependent decrease in platelet count”, the “animals with complete and durable regressions” value (SUDHL-4 xenograft; SUDHL-4, 103 mg/kg AZD0466 + 10 mg/kg rituximab) was 5/6 and the “animals with complete and durable regressions” value (SUDHL-4 xenograft; SUDHL-4, 172 mg/kg AZD0466 + 10 mg/kg rituximab) was 6/6. The “combination effect” value (SUDHL-4 xenograft; SUDHL-4, AZD0466 at various doses combined with 10 mg/kg rituximab) was “tumour regressions were seen in the combination groups at all doses”, the “SUDHL-4 xenograft efficacy, Geo Mean” value (SUDHL-4 xenograft; day 1) was 200.82 and the “SUDHL-4 xenograft efficacy, Geo Mean” value (SUDHL-4 xenograft; day 5) was 191.7. For the same molecule, the “SUDHL-4 xenograft efficacy, Geo Mean” value (SUDHL-4 xenograft; day 9) was 255.655, the “SUDHL-4 xenograft efficacy, Geo Mean” value (SUDHL-4 xenograft; day 12) was 291.711 and the “SUDHL-4 xenograft efficacy, Geo Mean” value (SUDHL-4 xenograft; day 16) was 450.847. The “SUDHL-4 xenograft efficacy, Geo Mean” value (SUDHL-4 xenograft; day 19) was 493.153, the “SUDHL-4 xenograft efficacy, Geo Mean” value (SUDHL-4 xenograft; day 23) was 795.158 and the “SUDHL-4 xenograft efficacy, Geo Mean” value (SUDHL-4 xenograft; day 26) was 1047.96. The “SUDHL-4 xenograft efficacy, Geo Mean” value (SUDHL-4 xenograft; day 29) was 1181.66, the “Raw bioluminescence counts in individual animals” value (from here on “Raw bioluminescence counts”) ([2]; AZD0466 34 mg/kg (10mg/kg AZD4320), day 1) was 1011000 counts and 1455000 counts and 962000 counts and 1223000 counts and 856300 counts and the “Raw bioluminescence counts” value ([2]; AZD0466 34 mg/kg (10mg/kg AZD4320), day 4) was 1131000 counts and 1477000 counts and 863000 counts and 1453000 counts and 1099000 counts. The “Raw bioluminescence counts” value ([2]; AZD0466 34 mg/kg (10mg/kg AZD4320), day 8) was 2077000 counts and 2641000 counts and 963600 counts and 3688000 counts and 1848000 counts, the “Raw bioluminescence counts” value ([2]; AZD0466 34 mg/kg (10mg/kg AZD4320), day 11) was 2663000 counts and 3475000 counts and 794700 counts and 3942000 counts and 2369000 counts and the “Raw bioluminescence counts” value ([2]; AZD0466 34 mg/kg (10mg/kg AZD4320), day 15) was 3909000 counts and 5355000 counts and 1268000 counts and 8178000 counts and 3745000 counts. The “Raw bioluminescence counts” value ([2]; AZD0466 103 mg/kg (30mg/kg AZD4320), day 1) was 1023000 counts and 885100 counts and 876200 counts and 2011000 counts and 1243000 counts, the “Raw bioluminescence counts” value ([2]; AZD0466 103 mg/kg (30mg/kg AZD4320), day 4) was 712200 counts and 758000 counts and 861600 counts and 963300 counts and 1088000 counts and the “Raw bioluminescence counts” value ([2]; AZD0466 103 mg/kg (30mg/kg AZD4320), day 8) was 888700 counts and 911000 counts and 1080000 counts and 921400 counts and 1303000 counts. The “Raw bioluminescence counts” value ([2]; AZD0466 103 mg/kg (30mg/kg AZD4320), day 11) was 687900 counts and 678400 counts and 868400 counts and 651900 counts and 817800 counts, the “Raw bioluminescence counts” value ([2]; AZD0466 103 mg/kg (30mg/kg AZD4320), day 15) was 1023000 counts and 956600 counts and 1075000 counts and 787100 counts and 1030000 counts and the “Raw bioluminescence counts” value ([2]; AZD0466 340 mg/kg (100mg/kg AZD4320), day 1) was 851500 counts and 1286000 counts and 895800 counts and 1120000 counts and 1558000 counts. The “Raw bioluminescence counts” value ([2]; AZD0466 340 mg/kg (100mg/kg AZD4320), day 4) was 675300 counts and 732000 counts and 775100 counts and 773400 counts and 665700 counts, the “Raw bioluminescence counts” value ([2]; AZD0466 340 mg/kg (100mg/kg AZD4320), day 8) was 696900 counts and 758300 counts and 613100 counts and 757700 counts and 754200 counts and the “Raw bioluminescence counts” value ([2]; AZD0466 340 mg/kg (100mg/kg AZD4320), day 11) was 628500 counts and 817700 counts and 761500 counts and 744200 counts and 883400 counts. The “Raw bioluminescence counts” value ([2]; AZD0466 340 mg/kg (100mg/kg AZD4320), day 15) was 1033000 counts and 1121000 counts and 987400 counts and 873700 counts and 861800 counts and the “anti-tumour activity” value ([2]; disseminated Ri-1, once weekly IV) was “dose-dependent anti-tumour activity”.
